# Laboratory results published in patent US9434763B2, “Derivatives of pyridinone as inhibitors for tissue transglutaminase” (ZEDIRA GMBH, priority 2012, dated 2016).
# Tests used:
# [1] = system: CaCo2 (human colon carcinoma-cell line); assay: Cytotoxicity: metabolic activity, EZ4U-Assay, CaCo2; assay type: cell-based
# Experimental: (§1) Huh 7 (human hepatome-cell line) and CaCo2 (human colon carcinoma-cell line) were seeded to 96 well plates in Dulbecco's Modified Eagle's Medium (DMEM)/10% fetal calf serum (FCS) and cultivated. The method is known to the skilled person.
# (§2) After one hour the inhibitors A63 (ZED1227), A29 (ZED1098) and A61 (ZED1219) were added in the concentrations 0.1 μM to 1 μM. The determination of the proliferation was carried out using the Cell Proliferation ELISA, BrdU (Roche 11 647 229 001): 24 hours after incubation of the cells with the inhibitor BrdU was added. The colorimetric development of the test was made after further 48 hours according to manufacturer's information. The extinction was measured at 450 nm. For determination of the metabolic activity using the EZ4U-Assay (Biomedica B1-5000) the tetrazolium substrate was added to the cells 48 hours after addition of the inhibitor. The capacity for reaction of the cells was measured every hour over a period of 4 hours at 450 nm against a reference filter of 630 nm. DMEM without inhibitor was added as reference in both experiments, as positive control cycloheximide (2.5 μg/ml) and camptothecin (0.2 μg/ml).
# [2] = system: Huh 7 (human hepatome-cell line); assay: Cytotoxicity: metabolic activity, EZ4U-Assay, Huh 7; assay type: cell-based
# Experimental: as §1
# as §2, with “After one hour the inhibitors A63 (ZED1227), A29 (ZED1098) and A61 (ZED1219) were added in the concentrations 0.1 μM to 1 μM.” left out
# [3] = target: T1, tissue transglutaminase (TG2) (Homo sapiens, UniProt P21980); assay: Comparative transglutaminase selectivity assay with casein and dansylcadaverine as substrates (kit T036): TG2; assay type: biochemical; settings: casein as substrate (apparent IC50)
# T1 construct: purchased Zedira T036 (kit)
# T1 sequence (P21980 1-687): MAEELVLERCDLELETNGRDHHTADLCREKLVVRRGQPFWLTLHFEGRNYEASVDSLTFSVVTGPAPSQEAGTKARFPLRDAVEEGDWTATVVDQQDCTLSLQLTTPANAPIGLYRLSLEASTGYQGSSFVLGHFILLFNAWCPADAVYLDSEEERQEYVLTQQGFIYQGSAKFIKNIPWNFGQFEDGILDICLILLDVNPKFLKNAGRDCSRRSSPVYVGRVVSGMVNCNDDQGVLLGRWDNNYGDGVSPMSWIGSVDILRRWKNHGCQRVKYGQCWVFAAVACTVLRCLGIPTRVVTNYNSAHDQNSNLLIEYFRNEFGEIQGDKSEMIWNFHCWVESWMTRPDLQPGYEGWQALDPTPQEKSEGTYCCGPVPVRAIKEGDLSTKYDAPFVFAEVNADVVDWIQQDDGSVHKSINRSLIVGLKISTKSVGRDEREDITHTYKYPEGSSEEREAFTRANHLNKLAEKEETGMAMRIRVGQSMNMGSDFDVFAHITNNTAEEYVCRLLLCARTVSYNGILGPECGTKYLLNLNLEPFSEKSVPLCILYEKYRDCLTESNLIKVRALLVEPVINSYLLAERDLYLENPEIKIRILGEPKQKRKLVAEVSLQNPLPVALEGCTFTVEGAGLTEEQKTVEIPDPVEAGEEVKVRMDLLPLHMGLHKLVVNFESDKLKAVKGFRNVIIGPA
# Source text: The comparative determination of different transglutaminases to determine the selectivity was made with casein and dansylcadaverine as substrates. Therefore, the kit T036 (Zedira, Darmstadt; Refs: Lorand et al, Anal Biochem, 1971, 44:221-31) as well as transglutaminase products T009 (transglutaminase 1), T012 (transglutaminase 3), T021 (transglutaminase 6) and T027 (plasma transglutaminase, factor XIII) are used. Therefore, two different IC50 values for the compounds are given.
# The evaluation of the resulting enzyme activity is done using the slope of the straight line obtained by the increase in fluorescence.
# To determine the non-inhibited enzyme activity, DMSO instead of inhibitor stock solution is used. IC50 values are determined by plotting the resulting enzyme activity against the logarithm of the inhibitor concentration. IC50 is defined as the concentration of inhibitor resulting in 50% of enzyme activity.
# It should be noted that it was measured here against casein as substrate, which is why other apparent inhibition values (IC50 value) result.
smiles,measurement,setting,value
"CCC(CC)CNC(=O)Cn1cccc(NC(=O)[C@H](CC/C=C/C(=O)OC)NC(=O)c2cncn2C)c1=O [A63, (S,E)-Methyl 7-(1-(2-(2-ethylbutylamino)-2-oxoethyl)-2-oxo-1,2-dihydropyridin-3-ylamino)-6-(1-methyl-1H-imidazole-5-carboxamido)-7-oxohept-2-enoate]",effect on metabolic activity (EZ4U),[1],no effect
same,effect on metabolic activity (EZ4U),[2],no effect
same,IC50,[3],0.218 µM
"COC(=O)/C=C/CC[C@H](NC(C)=O)C(=O)Nc1cccn(CC(=O)NCCC(C)C)c1=O [A29, (S,E)-methyl 6-acetamido-7-(1-(2-(isopentylamino)-2-oxoethyl)-2-oxo-1,2-dihydropyridin-3-ylamino)-7-oxohept-2-enoate]",effect on metabolic activity (EZ4U),[1],no effect
same,effect on metabolic activity (EZ4U),[2],no effect
same,IC50,[3],0.4 µM
"CCOC(=O)/C=C/CC[C@H](NC(=O)c1cncn1C)C(=O)Nc1cccn(CC(=O)NCCC(C)C)c1=O [A19, (S,E)-Ethyl 7-(1-(2-(isopentylamino)-2-oxoethyl)-2-oxo-1,2-dihydropyridin-3-ylamino)-6-(1-methyl-1H-imidazole-5-carboxamido)-7-oxohept-2-enoate]",IC50,[3],2.39 µM
"CCOC(=O)/C=C/CC[C@H](NC(=O)c1ccccc1)C(=O)Nc1cccn(CC(=O)N[C@H](C(=O)O)[C@H](C)CC)c1=O [A59, (2S,3R)-2-(2-(3-((S,E)-2-Benzamido-7-ethoxy-7-oxohept-5-enamido)-2-oxopyridin-1(2H)-yl)acetamido)-3-methylpentanoic acid]",IC50,[3],0.461 µM
"CCOC(=O)/C=C/CC[C@H](NC(=O)CCC(=O)O)C(=O)Nc1cccn(CC(=O)NCC(CC)CC)c1=O [A30, (S,E)-4-(7-Ethoxy-1-(1-(2-(2-ethylbutylamino)-2-oxoethyl)-2-oxo-1,2-dihydropyridin-3-ylamino)-1,7-dioxohept-5-en-2-ylamino)-4-oxobutanoic acid]",IC50,[3],3.26 µM
"CCOC(=O)/C=C/CC[C@H](NC(C)=O)C(=O)Nc1cccn(CC(=O)N[C@H](C(=O)OC)[C@H](C)CC)c1=O [A35, (S,E)-ethyl 6-acetamido-7-(1-(2-((2S,3R)-1-methoxy-3-methyl-1-oxopentan-2-ylamino)-2-oxoethyl)-2-oxo-1,2-dihydropyridin-3-ylamino)-7-oxohept-2-enoate]",IC50,[3],1 µM
"COC(=O)/C=C/CC[C@H](NC(C)=O)C(=O)Nc1cccn(CC(=O)N2CCC(C(F)(F)F)CC2)c1=O [A65, (S,E)-Methyl 6-acetamido-7-oxo-7-(2-oxo-1-(2-oxo-2-(4-(trifluoromethyl)piperidin-1-yl)ethyl)-1,2-dihydropyridin-3-ylamino)hept-2-enoate]",IC50,[3],2.9 µM
"CC[C@@H](C)[C@H](NC(=O)Cn1cccc(NC(=O)[C@H](CC/C=C/C(=O)OC)NC(=O)c2cncn2C)c1=O)C(=O)O [A60, (2S,3R)-2-(2-(3-((S,E)-7-Methoxy-2-(1-methyl-1H-imidazole-5-carboxamido)-7-oxohept-5-enamido)-2-oxopyridin-1(2H)-yl)acetamido)-3-methylpentanoic acid]",IC50,[3],0.112 µM
"CC[C@@H](C)[C@H](NC(=O)Cn1cccc(NC(=O)[C@H](CC/C=C/C(=O)OC)NC(=O)c2ccccc2)c1=O)C(=O)O [A61, (2S,3R)-2-(2-(3-((S,E)-2-benzamido-7-methoxy-7-oxohept-5-enamido)-2-oxopyridin-1(2H)-yl)acetamido)-3-methylpentanoic acid]",effect on metabolic activity (EZ4U),[1],no effect
same,effect on metabolic activity (EZ4U),[2],no effect
same,IC50,[3],0.079 µM
"CCOC(=O)/C=C/CC[C@H](NC(C)=O)C(=O)Nc1cccn(CC(=O)NCC(CC)CC)c1=O [A62, (S,E)-Ethyl 6-acetamido-7-(1-(2-(2-ethylbutylamino)-2-oxoethyl)-2-oxo-1,2-dihydropyridin-3-ylamino)-7-oxohept-2-enoate]",IC50,[3],1.96 µM
"CCOC(=O)/C=C/CC[C@H](NC(C)=O)C(=O)Nc1cccn(CC(=O)NCCC(C)C)c1=O [A7, (S,E)-Ethyl 6-acetamido-7-(1-(2-(isopentylamino)-2-oxoethyl)-2-oxo-1,2-dihydropyridin-3-ylamino)-7-oxohept-2-enoate]",IC50,[3],3.6 µM
"CCOC(=O)/C=C/CC[C@H](NC(=O)c1cncn1C)C(=O)Nc1cccn(CC(=O)N[C@H](C(=O)O)[C@H](C)CC)c1=O [A53, (2S,3R)-2-(2-(3-((S,E)-7-Ethoxy-2-(1-methyl-1H-imidazole-5-carboxamido)-7-oxohept-5-enamido)-2-oxopyridin-1(2H)-yl)acetamido)-3-methylpentanoic acid]",IC50,[3],0.833 µM
"CCOC(=O)/C=C/CC[C@H](NC(=O)CCC(=O)O)C(=O)Nc1cccn(CC(=O)NCCC(C)C)c1=O [A24, (S,E)-4-(7-Ethoxy-1-(1-(2-(isopentylamino)-2-oxoethyl)-2-oxo-1,2-dihydropyridin-3-ylamino)-1,7-dioxohept-5-en-2-ylamino)-4-oxobutanoic acid]",IC50,[3],7.5 µM
"COC(=O)/C=C/CC[C@H](NC(C)=O)C(=O)Nc1cccn(CC(=O)N2CCCC(C)C2)c1=O (stereo partly drawn) [A64, (6S,E)-Methyl 6-acetamido-7-(1-(2-(3-methylpipendin-1-yl)-2-oxoethyl)-2-oxo-1,2-dihydropyridin-3-ylamino)-7-oxohept-2-enoate]",IC50,[3],3 µM
"CCOC(=O)/C=C/CC[C@H](NC(=O)c1cncn1C)C(=O)Nc1cccn(CC(=O)NCC(CC)CC)c1=O [A58, (S,E)-Ethyl 7-(1-(2-(2-ethylbutylamino)-2-oxoethyl)-2-oxo-1,2-dihydropyridin-3-ylamino)-6-(1-methyl-1H-imidazole-5-carboxamido)-7-oxohept-2-enoate]",IC50,[3],1.54 µM
"CCOC(=O)/C=C/CC[C@H](NC(C)=O)C(=O)Nc1cccn(CC(=O)NCCC(CC)CC)c1=O [A42, (S,E)-ethyl 6-acetamido-7-(1-(2-(3-ethylpentylamino)-2-oxoethyl)-2-oxo-1,2-dihydropyridin-3-ylamino)-7-oxohept-2-enoate]",IC50,[3],7.1 µM
"CCC(CC)CNC(=O)Cn1cccc(NC(=O)[C@H](CC/C=C/C(=O)OC)NC(C)=O)c1=O [A79, (S,E)-Methyl 6-acetamido-7-(1-(2-(2-ethylbutylamino)-2-oxoethyl)-2-oxo-1,2-dihydropyridin-3-ylamino)-7-oxohept-2-enoate]",IC50,[3],0.397 µM
